Data published in patent publication US6090821A, “Substituted quinolin-2 (1H)-ones useful as HIV reverse transcriptase inhibitors” (E. I. DuPont de Nemours and Company, priority 1999, dated 2000).
Values after ≈ are worked out from the molar mass of the structure shown.

System: HIV-1 (RF)
Assay: HIV RNA assay: microplate based compound evaluation in HIV-1 infected MT-2 cells
Assay type: cell-based
Conditions: Human immunodeficiency virus 1, MT2, 72 h; HIV-1 (RF) infected MT-2 cells, 3 days at 37° C.; virus dilutions selected to give this ddC value (standardization of inoculum); read-out: IC90 value (concentration of compound required to reduce the HIV RNA level by 90%)
Protocol: Plasmid pDAB 72 containing both gag and pol sequences of BH10 (bp 113-1816) cloned into PTZ 19R was prepared according to Erickson-Viitanen et al. AIDS Research and Human Retroviruses 1989, 5, 577. The plasmid was linearized with Bam HI prior to the generation of in vitro RNA transcripts using the Riboprobe Gemini system II kit (Promega) with T7 RNA polymerase. Synthesized RNA was purified by treatment with RNase free DNAse (Promega), phenol-chloroform extraction, and ethanol precipitation. RNA transcripts were dissolved in water, and stored at -70° C. The concentration of RNA was determined from the A260.
Biotinylated capture probes were purified by HPLC after synthesis on an Applied Biosystems (Foster City, Calif.) DNA synthesizer by addition of biotin to the 5' terminal end of the oligonucleotide, using the biotin-phosphoramidite reagent of Cocuzza, Tet. Lett. 1989, 30, 6287. […]
MT-2 and MT-4 cells were maintained in RPMI 1640 supplemented with 5% fetal calf serum (FCS) for MT-2 cells or 10% FCS for MT-4 cells, 2 mM L-glutamine and 50 μg/mL gentamycin, all from Gibco. […] Infectious titers of HIV-1(RF) stocks were 1-3×10^7 PFU (plaque forming units)/mL as measured by plaque assay on MT-2 cells (see below). […]

In the case of `Nc1ccn([C@H]2CC[C@@H](CO)O2)c(=O)n1` [ddC, 2',3'-dideoxycytidine], the IC90 is reported as 0.2 µg/mL (≈ 0.947 µM).
